Key:
Format in all cases: biochemical
Conditions in all cases: 20 nM
PDE4B1 = target: T1, PDE4B1 (Homo sapiens, UniProt Q07343); experiment: PDE4 inhibitory activity assay (FAM-cAMP enzymatic reaction), PDE4B1
T1 construct: purchased BPS 60041
How it was run: (§1)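 Each isoform is incubated with test compound for 15 min at room temperature before FAM-cAMP substrate starts a 30-min reaction.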

PDE4D2 = PDE4D2 (Homo sapiens, UniProt Q08499); experiment: PDE4 inhibitory activity assay (FAM-cAMP enzymatic reaction), PDE4D2
How it was run: as §1

PDE4A1A = target: T2, PDE4A1A (Homo sapiens, UniProt P27815); experiment: PDE4 inhibitory activity assay (FAM-cAMP enzymatic reaction), PDE4A1A
T2 construct: purchased BPS 60040
How it was run: as §1

T2 sequence (P27815 1-647 isoform P27815-4): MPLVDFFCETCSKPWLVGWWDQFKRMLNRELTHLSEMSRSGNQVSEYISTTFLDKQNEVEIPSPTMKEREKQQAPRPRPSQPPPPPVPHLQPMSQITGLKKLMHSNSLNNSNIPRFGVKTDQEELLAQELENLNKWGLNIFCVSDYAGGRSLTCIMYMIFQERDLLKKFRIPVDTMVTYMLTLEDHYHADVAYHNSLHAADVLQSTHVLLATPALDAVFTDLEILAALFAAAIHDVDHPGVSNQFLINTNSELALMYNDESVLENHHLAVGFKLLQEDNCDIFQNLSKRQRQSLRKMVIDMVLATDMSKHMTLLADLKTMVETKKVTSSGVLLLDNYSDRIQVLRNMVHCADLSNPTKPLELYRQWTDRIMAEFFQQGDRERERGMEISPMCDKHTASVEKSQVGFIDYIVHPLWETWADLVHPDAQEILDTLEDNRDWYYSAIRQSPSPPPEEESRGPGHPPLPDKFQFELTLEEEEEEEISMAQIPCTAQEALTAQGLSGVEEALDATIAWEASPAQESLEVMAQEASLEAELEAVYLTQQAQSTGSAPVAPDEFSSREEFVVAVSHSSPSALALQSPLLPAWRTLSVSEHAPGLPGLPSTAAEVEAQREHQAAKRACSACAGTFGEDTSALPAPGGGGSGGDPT
T1 sequence (Q07343 whole entry): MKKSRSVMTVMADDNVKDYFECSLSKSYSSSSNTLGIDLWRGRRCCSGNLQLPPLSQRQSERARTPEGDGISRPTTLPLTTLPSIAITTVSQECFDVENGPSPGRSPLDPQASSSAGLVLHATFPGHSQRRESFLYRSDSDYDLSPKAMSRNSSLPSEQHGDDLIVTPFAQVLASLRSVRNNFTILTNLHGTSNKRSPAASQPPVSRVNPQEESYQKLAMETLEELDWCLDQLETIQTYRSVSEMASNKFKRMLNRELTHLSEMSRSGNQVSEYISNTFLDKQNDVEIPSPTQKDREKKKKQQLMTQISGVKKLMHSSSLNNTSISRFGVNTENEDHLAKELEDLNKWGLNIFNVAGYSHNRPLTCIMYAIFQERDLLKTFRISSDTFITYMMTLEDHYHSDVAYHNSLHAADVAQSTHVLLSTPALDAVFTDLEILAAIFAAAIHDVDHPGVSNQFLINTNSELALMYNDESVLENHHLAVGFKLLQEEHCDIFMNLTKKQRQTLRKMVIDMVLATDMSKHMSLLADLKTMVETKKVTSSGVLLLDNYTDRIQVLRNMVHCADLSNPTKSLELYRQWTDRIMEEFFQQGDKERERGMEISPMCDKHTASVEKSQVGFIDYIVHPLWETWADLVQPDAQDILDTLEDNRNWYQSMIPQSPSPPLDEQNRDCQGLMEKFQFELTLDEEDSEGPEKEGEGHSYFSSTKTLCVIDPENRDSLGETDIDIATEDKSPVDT
PDE4D2, sequence (Q08499 303-809): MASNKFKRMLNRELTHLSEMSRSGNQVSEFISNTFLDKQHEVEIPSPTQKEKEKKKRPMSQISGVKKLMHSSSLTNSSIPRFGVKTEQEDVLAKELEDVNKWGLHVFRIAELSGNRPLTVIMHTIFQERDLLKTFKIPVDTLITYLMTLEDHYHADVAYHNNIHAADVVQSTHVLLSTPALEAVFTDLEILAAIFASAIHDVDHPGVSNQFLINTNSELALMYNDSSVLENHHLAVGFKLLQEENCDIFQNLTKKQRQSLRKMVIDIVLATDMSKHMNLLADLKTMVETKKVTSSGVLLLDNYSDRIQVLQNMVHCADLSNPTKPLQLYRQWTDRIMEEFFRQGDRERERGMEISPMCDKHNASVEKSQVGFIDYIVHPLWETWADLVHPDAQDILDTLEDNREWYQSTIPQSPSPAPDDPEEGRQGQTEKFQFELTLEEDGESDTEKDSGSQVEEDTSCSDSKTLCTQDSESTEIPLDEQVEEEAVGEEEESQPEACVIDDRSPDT

CCOc1nc([C@@H](CS(C)(=O)=O)n2c(=O)n(C)c3cc(-c4ccccc4CC)ccc32)ccc1OC [Ex. 151, (S)-1-(1-(6-ethoxy-5-methoxypyridin-2-yl)-2-(methylsulfonyl)ethyl)-5-(2-ethylphenyl)-3-methyl-1H-benzo[d]imidazol-2(3H)-one]
+: PDE4 B1 inhibitory effect at 20 nM (PDE4B1) | PDE4 D2 inhibitory effect at 20 nM (PDE4D2) | PDE4 A1 inhibitory effect at 20 nM (PDE4A1A)

CCOc1nc([C@@H](CS(C)(=O)=O)n2c(=O)[nH]c3cc(-c4cccc(F)c4F)ccc32)ccc1OC [Ex. 152, (S)-5-(2,3-difluorophenyl)-1-(1-(6-ethoxy-5-methoxypyridin-2-yl)-2-(methylsulfonyl)ethyl)-1H-benzo[d]imidazol-2(3H)-one]
+: PDE4 B1 inhibitory effect at 20 nM (PDE4B1) | PDE4 D2 inhibitory effect at 20 nM (PDE4D2) | PDE4 A1 inhibitory effect at 20 nM (PDE4A1A)

CCOc1nc([C@@H](CS(C)(=O)=O)n2c(=O)n(C)c3cc(-c4cccc(F)c4F)ccc32)ccc1OC [Ex. 153, (S)-5-(2,3-difluorophenyl)-1-(1-(6-ethoxy-5-methoxypyridin-2-yl)-2-(methylsulfonyl)ethyl)-3-methyl-1H-benzo[d]imidazol-2(3H)-one]
+: PDE4 B1 inhibitory effect at 20 nM (PDE4B1) | PDE4 D2 inhibitory effect at 20 nM (PDE4D2) | PDE4 A1 inhibitory effect at 20 nM (PDE4A1A)

CCOc1nc([C@@H](CS(C)(=O)=O)n2c(=O)[nH]c3cc(-c4c(F)cccc4F)ccc32)ccc1OC [Ex. 154, (S)-5-(2,6-difluorophenyl)-1-(1-(6-ethoxy-5-methoxypyridin-2-yl)-2-(methylsulfonyl)ethyl)-1H-benzo[d]imidazol-2(3H)-one]
+: PDE4 B1 inhibitory effect at 20 nM (PDE4B1) | PDE4 D2 inhibitory effect at 20 nM (PDE4D2) | PDE4 A1 inhibitory effect at 20 nM (PDE4A1A)

CCOc1nc([C@@H](CS(C)(=O)=O)n2c(=O)n(C)c3cc(-c4c(F)cccc4F)ccc32)ccc1OC [Ex. 155, (S)-5-(2,6-difluorophenyl)-1-(1-(6-ethoxy-5-methoxypyridin-2-yl)-2-(methylsulfonyl)ethyl)-3-methyl-1H-benzo[d]imidazol-2(3H)-one]
+: PDE4 B1 inhibitory effect at 20 nM (PDE4B1) | PDE4 D2 inhibitory effect at 20 nM (PDE4D2) | PDE4 A1 inhibitory effect at 20 nM (PDE4A1A)

CCOc1nc([C@@H](CS(C)(=O)=O)n2c(=O)[nH]c3cc(-c4ccc(F)cc4F)ccc32)ccc1OC [Ex. 156, (S)-5-(2,4-difluorophenyl)-1-(1-(6-ethoxy-5-methoxypyridin-2-yl)-2-(methylsulfonyl)ethyl)-1H-benzo[d]imidazol-2(3H)-one]
+: PDE4 B1 inhibitory effect at 20 nM (PDE4B1) | PDE4 D2 inhibitory effect at 20 nM (PDE4D2) | PDE4 A1 inhibitory effect at 20 nM (PDE4A1A)

CCOc1nc([C@@H](CS(C)(=O)=O)n2c(=O)n(C)c3cc(-c4ccc(F)cc4F)ccc32)ccc1OC [Ex. 157, (S)-5-(2,4-difluorophenyl)-1-(1-(6-ethoxy-5-methoxypyridin-2-yl)-2-(methylsulfonyl)ethyl)-3-methyl-1H-benzo[d]imidazol-2(3H)-one]
+: PDE4 B1 inhibitory effect at 20 nM (PDE4B1) | PDE4 D2 inhibitory effect at 20 nM (PDE4D2) | PDE4 A1 inhibitory effect at 20 nM (PDE4A1A)

CCOc1nc([C@@H](CS(C)(=O)=O)n2c(=O)[nH]c3cc(-c4cc(F)c(F)cc4F)ccc32)ccc1OC [Ex. 158, (S)-5-(2,4,5-trifluorophenyl)-1-(1-(6-ethoxy-5-methoxypyridin-2-yl)-2-(methylsulfonyl)ethyl)-1H-benzo[d]imidazol-2(3H)-one]
+: PDE4 B1 inhibitory effect at 20 nM (PDE4B1) | PDE4 D2 inhibitory effect at 20 nM (PDE4D2) | PDE4 A1 inhibitory effect at 20 nM (PDE4A1A)

CCOc1nc([C@@H](CS(C)(=O)=O)n2c(=O)n(C)c3cc(-c4cc(F)c(F)cc4F)ccc32)ccc1OC [Ex. 159, (S)-5-(2,4,5-trifluorophenyl)-1-(1-(6-ethoxy-5-methoxypyridin-2-yl)-2-(methylsulfonyl)ethyl)-3-methyl-1H-benzo[d]imidazol-2(3H)-one]
+: PDE4 B1 inhibitory effect at 20 nM (PDE4B1) | PDE4 D2 inhibitory effect at 20 nM (PDE4D2) | PDE4 A1 inhibitory effect at 20 nM (PDE4A1A)

CCOc1nc([C@@H](CS(C)(=O)=O)n2c(=O)[nH]c3cc(-c4cc(F)ccc4F)ccc32)ccc1OC [Ex. 160, (S)-5-(2,5-difluorophenyl)-1-(1-(6-ethoxy-5-methoxypyridin-2-yl)-2-(methylsulfonyl)ethyl)-1H-benzo[d]imidazol-2(3H)-one]
+: PDE4 B1 inhibitory effect at 20 nM (PDE4B1) | PDE4 D2 inhibitory effect at 20 nM (PDE4D2) | PDE4 A1 inhibitory effect at 20 nM (PDE4A1A)

CCOc1nc([C@@H](CS(C)(=O)=O)n2c(=O)n(C)c3cc(-c4cc(F)ccc4F)ccc32)ccc1OC [Ex. 161, (S)-5-(2,5-difluorophenyl)-1-(1-(6-ethoxy-5-methoxypyridin-2-yl)-2-(methylsulfonyl)ethyl)-3-methyl-1H-benzo[d]imidazol-2(3H)-one]
+: PDE4 B1 inhibitory effect at 20 nM (PDE4B1) | PDE4 D2 inhibitory effect at 20 nM (PDE4D2) | PDE4 A1 inhibitory effect at 20 nM (PDE4A1A)

CCOc1nc([C@@H](CS(C)(=O)=O)n2c(=O)[nH]c3cc(-c4ccc(C)cc4C)ccc32)ccc1OC [Ex. 162, (S)-5-(2,4-dimethylphenyl)-1-(1-(6-ethoxy-5-methoxypyridin-2-yl)-2-(methylsulfonyl)ethyl)-1H-benzo[d]imidazol-2(3H)-one]
+: PDE4 B1 inhibitory effect at 20 nM (PDE4B1) | PDE4 D2 inhibitory effect at 20 nM (PDE4D2) | PDE4 A1 inhibitory effect at 20 nM (PDE4A1A)

CCOc1nc([C@@H](CS(C)(=O)=O)n2c(=O)n(C)c3cc(-c4ccc(C)cc4C)ccc32)ccc1OC [Ex. 163, (S)-5-(2,4-dimethylphenyl)-1-(1-(6-ethoxy-5-methoxypyridin-2-yl)-2-(methylsulfonyl)ethyl)-3-methyl-1H-benzo[d]imidazol-2(3H)-one]
+: PDE4 B1 inhibitory effect at 20 nM (PDE4B1) | PDE4 D2 inhibitory effect at 20 nM (PDE4D2) | PDE4 A1 inhibitory effect at 20 nM (PDE4A1A)

CCOc1nc([C@@H](CS(C)(=O)=O)n2c(=O)[nH]c3cc(-c4cc(C)ccc4C)ccc32)ccc1OC [Ex. 164, (S)-5-(2,5-dimethylphenyl)-1-(1-(6-ethoxy-5-methoxypyridin-2-yl)-2-(methylsulfonyl)ethyl)-1H-benzo[d]imidazol-2(3H)-one]
+: PDE4 B1 inhibitory effect at 20 nM (PDE4B1) | PDE4 D2 inhibitory effect at 20 nM (PDE4D2) | PDE4 A1 inhibitory effect at 20 nM (PDE4A1A)

CCOc1nc([C@@H](CS(C)(=O)=O)n2c(=O)n(C)c3cc(-c4cc(C)ccc4C)ccc32)ccc1OC [Ex. 165, (S)-5-(2,5-dimethylphenyl)-1-(1-(6-ethoxy-5-methoxypyridin-2-yl)-2-(methylsulfonyl)ethyl)-3-methyl-1H-benzo[d]imidazol-2(3H)-one]
+: PDE4 B1 inhibitory effect at 20 nM (PDE4B1) | PDE4 D2 inhibitory effect at 20 nM (PDE4D2) | PDE4 A1 inhibitory effect at 20 nM (PDE4A1A)

CCOc1nc([C@@H](CS(C)(=O)=O)n2c(=O)[nH]c3cc(-c4cccc(C)c4C)ccc32)ccc1OC [Ex. 166, (S)-5-(2,3-dimethylphenyl)-1-(1-(6-ethoxy-5-methoxypyridin-2-yl)-2-(methylsulfonyl)ethyl)-1H-benzo[d]imidazol-2(3H)-one]
+: PDE4 B1 inhibitory effect at 20 nM (PDE4B1) | PDE4 D2 inhibitory effect at 20 nM (PDE4D2) | PDE4 A1 inhibitory effect at 20 nM (PDE4A1A)

CCOc1nc([C@@H](CS(C)(=O)=O)n2c(=O)n(C)c3cc(-c4cccc(C)c4C)ccc32)ccc1OC [Ex. 167, (S)-5-(2,3-dimethylphenyl)-1-(1-(6-ethoxy-5-methoxypyridin-2-yl)-2-(methylsulfonyl)ethyl)-3-methyl-1H-benzo[d]imidazol-2(3H)-one]
+: PDE4 B1 inhibitory effect at 20 nM (PDE4B1) | PDE4 D2 inhibitory effect at 20 nM (PDE4D2) | PDE4 A1 inhibitory effect at 20 nM (PDE4A1A)

CCOc1nc([C@@H](CS(C)(=O)=O)n2c(=O)[nH]c3cc(-c4c(C)cccc4C)ccc32)ccc1OC [Ex. 168, (S)-5-(2,6-dimethylphenyl)-1-(1-(6-ethoxy-5-methoxypyridin-2-yl)-2-(methylsulfonyl)ethyl)-1H-benzo[d]imidazol-2(3H)-one]
+: PDE4 B1 inhibitory effect at 20 nM (PDE4B1) | PDE4 D2 inhibitory effect at 20 nM (PDE4D2) | PDE4 A1 inhibitory effect at 20 nM (PDE4A1A)

CCOc1nc([C@@H](CS(C)(=O)=O)n2c(=O)[nH]c3cc(-c4ccc(F)cc4C)ccc32)ccc1OC [Ex. 169, (S)-5-(4-fluoro-2-methylphenyl)-1-(1-(6-ethoxy-5-methoxypyridin-2-yl)-2-(methylsulfonyl)ethyl)-1H-benzo[d]imidazol-2(3H)-one]
+: PDE4 B1 inhibitory effect at 20 nM (PDE4B1) | PDE4 D2 inhibitory effect at 20 nM (PDE4D2) | PDE4 A1 inhibitory effect at 20 nM (PDE4A1A)

CCOc1nc([C@@H](CS(C)(=O)=O)n2c(=O)n(C)c3cc(-c4ccc(F)cc4C)ccc32)ccc1OC [Ex. 170, (S)-5-(4-fluoro-2-methylphenyl)-1-(1-(6-ethoxy-5-methoxypyridin-2-yl)-2-(methylsulfonyl)ethyl)-3-methyl-1H-benzo[d]imidazol-2(3H)-one]
+: PDE4 B1 inhibitory effect at 20 nM (PDE4B1) | PDE4 D2 inhibitory effect at 20 nM (PDE4D2) | PDE4 A1 inhibitory effect at 20 nM (PDE4A1A)

CCOc1nc([C@@H](CS(C)(=O)=O)n2c(=O)n(C)c3cc(-c4cc(F)ccc4C)ccc32)ccc1OC [Ex. 172, (S)-5-(5-fluoro-2-methylphenyl)-1-(1-(6-ethoxy-5-methoxypyridin-2-yl)-2-(methylsulfonyl)ethyl)-3-methyl-1H-benzo[d]imidazol-2(3H)-one]
+: PDE4 B1 inhibitory effect at 20 nM (PDE4B1) | PDE4 D2 inhibitory effect at 20 nM (PDE4D2) | PDE4 A1 inhibitory effect at 20 nM (PDE4A1A)

Reference: patent US20230141101A1, “PDE4 INHIBITOR COMPOUND AND MEDICAL USE THEREOF” (Suzhou Longbotai Pharmaceuticals Co., Ltd., priority 2020, published 2023)
